Test results as given in ChEMBL document CHEMBL3885861, “Open TG-GATES”.

Species: Rattus norvegicus
Assay: Open TG-GATES - Regimen: Daily Repeat
Format: toxicity, organism-based, Sprague-Dawley
Design: regimen Daily Repeat, gender Male, age 6 weeks
Settings: in vivo, po, 2000 mg/kg, route gavage, dose level High; for APTT / Bas / Eos / Fbg / Hb / Ht / Lym / MCH / MCHC / MCV / Mono / Neu / PT / Plat / RBC / Ret / WBC: tissue Blood; for KIDNEY_L / KIDNEY_R / KIDNEY_TOTAL: tissue Kidney; for LIVER: tissue Liver; for A/G / ALP / ALT / AST / BUN / CRE / Ca / Cl / DBIL / GLC / IP / K / LDH / Na / PL / RALB / TBIL / TC / TG / TP / gamma-GTP: tissue Plasma

## COc1ccc(O)c(C(C)(C)C)c1.COc1ccc(O)cc1C(C)(C)C [BUTYLATED HYDROXYANISOLE]
72 h, time 3 day
  TERMINAL_BW: 199.9 g
  APTT: 18.9 s
  Bas: 0.2%
  Eos: 0.7%
  Fbg: 288 mg/dL
  Hb: 13.9 g/dL
  Ht: 40.3%
  Lym: 78.1%
  MCH: 20.7 pg
  MCHC: 34.6%
  MCV: 59.8 fL
  Mono: 2.8%
  Neu: 17.5%
  PT: 11.8 s
  Plat: 152.4 x10_4/uL
  RBC: 673.2 x10_4/ul
  Ret: 2.1%
  WBC: 93.2 x10_2/uL
  KIDNEY_L: 0.9 g
  KIDNEY_R: 0.9 g
  KIDNEY_TOTAL: 1.8 g
  LIVER: 12.3 g
  A/G: 0.8
  ALP: 1414.4 IU/L
  ALT: 69.4 IU/L
  AST: 76.4 IU/L
  BUN: 14.2 mg/dL
  CRE: 0.2 mg/dL
  Ca: 10.9 mg/dL
  Cl: 108.2 meq/L
  DBIL: 0.036 mg/dL
  GLC: 152 mg/dL
  IP: 5.5 mg/dL
  K: 3.6 meq/L
  LDH: 70.2 IU/L
  Na: 143 meq/L
  PL: 197 mg/dL
  RALB: 2.5 g/dL
  TBIL: 0.09 mg/dL
  TC: 113 mg/dL
  TG: 106.4 mg/dL
  TP: 5.5 g/dL
  gamma-GTP: 2.8 IU/L
[…], time 7 day
  TERMINAL_BW: 225.2 g
  APTT: 15.8 s
  Bas: 0.3%
  Eos: 0.5%
  Fbg: 316.8 mg/dL
  Hb: 13.2 g/dL
  Ht: 38.2%
  Lym: 76.9%
  MCH: 20.2 pg
  MCHC: 34.6%
  MCV: 58.3 fL
  Mono: 3.4%
  Neu: 18.2%
  PT: 11.6 s
  Plat: 176.3 x10_4/uL
  RBC: 655.8 x10_4/ul
  Ret: 4.1%
  WBC: 146.4 x10_2/uL
  KIDNEY_L: 0.9 g
  KIDNEY_R: 0.9 g
  KIDNEY_TOTAL: 1.8 g
  LIVER: 12.6 g
  A/G: 0.8
  ALP: 797 IU/L
  ALT: 44.8 IU/L
  AST: 61.2 IU/L
  BUN: 17 mg/dL
  CRE: 0.2 mg/dL
  Ca: 11.5 mg/dL
  Cl: 105.4 meq/L
  DBIL: 0.032 mg/dL
  GLC: 157 mg/dL
  IP: 7.7 mg/dL
  K: 3.4 meq/L
  LDH: 62.8 IU/L
  Na: 143.8 meq/L
  PL: 180 mg/dL
  RALB: 2.7 g/dL
  TBIL: 0.066 mg/dL
  TC: 102.6 mg/dL
  TG: 97.2 mg/dL
  TP: 6.1 g/dL
  gamma-GTP: 2.4 IU/L
[…], time 14 day
  TERMINAL_BW: 262.1 g
  APTT: 18.4 s
  Bas: 0.2%
  Eos: 0.6%
  Fbg: 295.6 mg/dL
  Hb: 13.6 g/dL
  Ht: 39.4%
  Lym: 71.9%
  MCH: 19.7 pg
  MCHC: 34.6%
  MCV: 56.9 fL
  Mono: 2.6%
  Neu: 23.8%
  PT: 12.1 s
  Plat: 130.9 x10_4/uL
  RBC: 693.8 x10_4/ul
  Ret: 3.8%
  WBC: 103.7 x10_2/uL
  KIDNEY_L: 1 g
  KIDNEY_R: 1 g
  KIDNEY_TOTAL: 2 g
  LIVER: 15.3 g
  A/G: 0.8
  ALP: 1011.2 IU/L
  ALT: 39.4 IU/L
  AST: 59.2 IU/L
  BUN: 18.4 mg/dL
  CRE: 0.2 mg/dL
  Ca: 11.2 mg/dL
  Cl: 105.6 meq/L
  DBIL: 0.026 mg/dL
  GLC: 159.8 mg/dL
  IP: 6.2 mg/dL
  K: 3.4 meq/L
  LDH: 43.6 IU/L
  Na: 144.8 meq/L
  PL: 204.4 mg/dL
  RALB: 2.8 g/dL
  TBIL: 0.062 mg/dL
  TC: 108 mg/dL
  TG: 153.6 mg/dL
  TP: 6.2 g/dL
  gamma-GTP: 3 IU/L
[…], time 28 day
  TERMINAL_BW: 342.7 g
  APTT: 22.8 s
  Bas: 0.4%
  Eos: 0.7%
  Fbg: 317.2 mg/dL
  Hb: 14.7 g/dL
  Ht: 41.8%
  Lym: 75.1%
  MCH: 19 pg
  MCHC: 35.3%
  MCV: 53.8 fL
  Mono: 2.1%
  Neu: 21%
  PT: 12.5 s
  Plat: 129.2 x10_4/uL
  RBC: 778.2 x10_4/ul
  Ret: 2.2%
  WBC: 110.2 x10_2/uL
  KIDNEY_L: 1.2 g
  KIDNEY_R: 1.2 g
  KIDNEY_TOTAL: 2.4 g
  LIVER: 19.6 g
  A/G: 0.7
  ALP: 696 IU/L
  ALT: 36.6 IU/L
  AST: 58 IU/L
  BUN: 19.8 mg/dL
  CRE: 0.2 mg/dL
  Ca: 11.3 mg/dL
  Cl: 104.8 meq/L
  DBIL: 0.022 mg/dL
  GLC: 174.8 mg/dL
  IP: 5.6 mg/dL
  K: 3.5 meq/L
  LDH: 58.2 IU/L
  Na: 145.8 meq/L
  PL: 198.8 mg/dL
  RALB: 2.8 g/dL
  TBIL: 0.068 mg/dL
  TC: 109 mg/dL
  TG: 121 mg/dL
  TP: 6.6 g/dL
  gamma-GTP: 2.6 IU/L
